Reference: patent US20240166658A1, “PORPHYRIN DERIVATIVES AND USES THEREOF” (University of Tasmania, priority 2021, published 2024)

How the values were obtained:
[1] = Preliminary binding study of urea linked host, UV-Vis; details: dichloromethane
Description: However, these colorimetric changes were weaker than that observed with the amide equivalent, likely due to the formation of an insoluble precipitate upon binding. Binding of the urea linked porphyrin host with PFOA and PFOS was also confirmed by ^19F NMR spectra (FIG. 7).

Aqueous extraction tests = details: PFOA 5.5 × 10^−4 M in water (~228 ppm), volume 1:1
Description: Aqueous solutions of PFOA were prepared and combined with an organic phase of sensor molecule (9) in dichloromethane. Colour change observations at various sensor concentrations are described in Table 12.

[2] = PFCA guest response across the nine PFCAs (UV-Vis, RGB, one-way ANOVA variance); details: dichloromethane
Description: (§1) Experiments were performed at concentrations that could be monitored by the naked eye for practical sensing of PFAS in the field. Complexes of hosts (9), (11) and (12) were formed with the nine different perfluorocarboxylic acids (PFCAs) shown in Table 2 above and the colours of each host−PFCA complex were photographed in a lightbox and analysed using ImageJ software RGB analysis. Pixels of the solution were chosen at random to provide an RGB value. Multiple RGB values were recorded for each host−PFCA solution, and an average colour can be produced. From those values an RGB parameter was used to give a response value for modelling (Tahir et al., 2016).
(§2) After preliminary screenings, UV-Vis spectra were collected before and after the addition of 1 molar equivalent of each PFCA for each host, and the degree of complexation was noted by shifts in the Soret bands and formation of a peak at ca. 650 nm. To eliminate dilution effects, PFCA guest solutions were prepared in the equivalent concentration of host. If there was a notable host−guest interaction for a particular PFCA, the host−guest binding was investigated with more rigorous UV-Vis experiments, binding studies, and further colour analyses. Throughout these investigations, PFOA was considered the “average” PFCA both because of its position in the range of PFCA sizes and because its prevalence is often an indication of broader PFAS contamination. In any experiment where binding was further investigated for a particular PFCA, it was typically replicated with PFOA for comparison.
One-way factorial ANOVA was used to examine the dependence (or independence) of two or more factors affecting the dependent variable concurrently, in the present case the change in absorption, or the change in RGB response across the tested PFCAs, or across the different hosts. This analysis was used to determine the variance in the responses of each host across the different PFCAs. […]

[3] = 1H NMR titration with GenX in CDCl3; assay type: binding; details: host 6.85×10^−4 M in CDCl3, 20 μL aliquots of guest
[4] = PFCA guest response screening (RGB analysis, UV-Vis)
Description: A Puluz® 20 cm portable light tent with moderate and dispersed white LED lighting was used to photograph samples using an iPhone 6S plus camera on a fixed tripod. The automatic flash settings were disabled so there was no reflective interference on the sample vials. Samples that were being directly compared were photographed together to ensure lighting conditions and settings were consistent. The photographs were analysed using ImageJ software according to the procedure of Gallagher, 2014b. Multiple RGB values were chosen from areas of each sample at random to provide an “average” RGB value (Menesatti et al., 2012; Gallagher, 2014a; Phuangsaijai et al., 2021). Those RGB values were used to produce an artificial colour tile for visual comparison, or parameterized for modelling.
To quantify a colour difference, RGB values were transformed within the CIELab colour space. The difference, expressed as ΔE, was determined by measuring the relative distance between two colours. The numeric ΔE value can be used to predict how the two colours are perceived by a standard observer; a ΔE>2 is considered the minimum value to achieve a “just noticeable difference” (JND) (Table 1), which is the smallest difference required for an untrained observer to be able to determine two colours as being different (Castillo et al., 2021).
as §1, §2

[5] = UV-Vis host-guest titration, association constant; assay type: binding; details: short, medium and long chain sensor molecules with PFOA
Description: Path length of the quartz cell was 1 cm. For UV-vis titrations, a stock solution of host was prepared (2.2×10^−3 M) in dichloromethane (DCM) and serially diluted to the required concentrations. Working solutions of tetrabutylammonium (TBA) anion salts or guest molecules were prepared in the same manner Host−guest titrations used solutions of guest prepared in the working concentration of host solution, according to the procedure of Thordarson, 2011.
UV-vis spectroscopic host−guest titrations were performed in accordance with the methodologies of Thordarson, 2011. Solutions of host in dichloromethane were prepared. Solutions of guest were then prepared in the host solution. Aliquots of guest in host solution were added to host solution and sequentially analysed until a known molar equivalent of guest was added. The amount of guest added per aliquot was ascertained by a preliminary screening experiment; strong association constants required smaller molar equivalents so more information could be collected. […] The inverse is true for weaker binding interactions. Molar equivalents between 0.1-5 typically provided adequate information for modelling. The data was then used to simulate binding isotherms using www.supramolecular.org (Hibbert and Thordarson, 2016). The data was fitted to 1:1, 1:2 and 2:1 equilibria making no assumptions about the cooperativity of the binding interactions and modelled using different algorithms. These experiments mainly used the Nelder-Mead (Simplex) method.
UV-Vis spectroscopy binding studies were used to determine the association constant for the host (9)−PFOA complex.
A host solution of host (9) in dichloromethane was monitored using UV-Vis analysis as 0.5-10 equivalents of each PFAS was added. […] The data was processed using Bindfit isotherm simulators using both Nelder-Mead and L-BFGS-B methods (Thordarson, 2011).
To highlight any potential binding preferences across the PFCAs from the host molecules, triplicates of host−guest addition titrations were performed using host (9) and the TBA salts of the nine different deprotonated PFCAs.

[6] = Colorimetric calibration chart, RGB response to known PFOA concentrations; details: PFOA 0.7 ppm, dichloromethane
Description: The host molecules were combined with known concentrations of PFOA to provide RGB colour responses, which were used to create a colorimetric calibration chart that could be trialled as an indicator for estimating the total concentration of a range of any PFCAs. Solutions of each host molecule (1.00×10^−5 M) were prepared in dichloromethane. Solutions of PFOA in dichloromethane were prepared across a range of concentrations (0→16 ppm, 4.00×10^−5 M). Each host (2 mL) was combined with each PFOA concentration (1 mL, final concentration 0→1.33×10^−5 M) and photographed under equivalent lighting conditions. The average colour of each solution was then found using ImageJ RGB analysis, and a colour chart was produced.
For this reason, parametrization of the RGB values can be useful for interpreting results. The RGB response parameter can be calculated using the RGB values of the “blank” host solution (Šafranko et al., 2019) and the effective intensities of the individual RGB values of a sample (Tahir et al., 2016):
Here, H, indicates the values for the host solution, and S, indicates the response for a sample containing a PFCA, so that ΔR, ΔG, and ΔB give the colour differences. The RGB parameter is the response due to the relative difference in the RGB intensities:
The RGB values collected for each host with a range of known concentrations of PFOA in dichloromethane were parameterized and used to determine a relationship between concentration of analyte and RGB response values. […] The relationship between RGB response values and concentrations of PFOA could now be tested for accuracy in determining the concentration of any PFCA.

[7] = Rodea-Palomares et al., 2012; cited from earlier work

O=C(NC(=O)C(F)(F)C(F)(F)C(F)(F)C(F)(F)C(F)(F)C(F)(F)C(F)(F)F)Nc1ccccc1-c1c2nc(c(-c3ccccc3NC(=O)NC(=O)C(F)(F)C(F)(F)C(F)(F)C(F)(F)C(F)(F)C(F)(F)C(F)(F)F)c3ccc([nH]3)c(-c3ccccc3NC(=O)NC(=O)C(F)(F)C(F)(F)C(F)(F)C(F)(F)C(F)(F)C(F)(F)C(F)(F)F)c3nc(c(-c4ccccc4NC(=O)NC(=O)C(F)(F)C(F)(F)C(F)(F)C(F)(F)C(F)(F)C(F)(F)C(F)(F)F)c4ccc1[nH]4)C=C3)C=C2 [host (10), 5,10,15,20-tetra-(2-ureaphenyl-pentadecafluoro-octanoyl) porphyrin]
colour change by UV-Vis spectrophotometric analysis ([1]; addition of PFOA): discernible colour change | colour change by UV-Vis spectrophotometric analysis ([1]; addition of PFOS): discernible colour change | Observations (Aqueous extraction tests; sensor 1.1 × 10^−6 M in DCM, H:G 1:500): Some colour change, | Observations (Aqueous extraction tests; sensor 2.2 × 10^−3 M in DCM, H:G 4:1): Strong colour change | Observations (Aqueous extraction tests; sensor 2.2 × 10^−4 M in DCM, H:G 2:5): Strong colour change | Observations (Aqueous extraction tests; sensor 2.2 × 10^−5 M in DCM, H:G 1:25): Strong colour change

O=C(Nc1ccccc1-c1c2nc(c(-c3ccccc3NC(=O)C(F)(F)C(F)(F)C(F)(F)F)c3ccc([nH]3)c(-c3ccccc3NC(=O)C(F)(F)C(F)(F)C(F)(F)F)c3nc(c(-c4ccccc4NC(=O)C(F)(F)C(F)(F)C(F)(F)F)c4ccc1[nH]4)C=C3)C=C2)C(F)(F)C(F)(F)C(F)(F)F [host (11), α,α,α,α-5,10,15,20-tetra(2-(heptafluorobutanoylamino)phenyl) porphyrin]
colorimetric response to all nine PFCAs [2]: strong colorimetric response | 1H NMR response to addition of GenX [3]: showed shifts | Absorbance @ 650 nm ([4]; host + one equivalent PFBA in dichloromethane): 0.113 | Absorbance @ 650 nm ([4]; host + one equivalent PFDA in dichloromethane): 0.0469 | Absorbance @ 650 nm ([4]; host + one equivalent PFDoDA in dichloromethane): 0.0519 | Absorbance @ 650 nm ([4]; host + one equivalent PFHpA in dichloromethane): 0.1009 | Absorbance @ 650 nm ([4]; host + one equivalent PFHxA in dichloromethane): 0.0967 | Absorbance @ 650 nm ([4]; host + one equivalent PFNA in dichloromethane): 0.0473 | Absorbance @ 650 nm ([4]; host + one equivalent PFOA in dichloromethane): 0.0977 | Absorbance @ 650 nm ([4]; host + one equivalent PFPeA in dichloromethane): 0.1125 | Absorbance @ 650 nm ([4]; host + one equivalent PFUnDA in dichloromethane): 0.0475 | ΔEHost-PFCA ([4]; host vs host + PFBA): 45.9 | ΔEHost-PFCA ([4]; host vs host + PFDA): 27.0 | ΔEHost-PFCA ([4]; host vs host + PFDoDA): 27.2 | ΔEHost-PFCA ([4]; host vs host + PFHpA): 43.2 | ΔEHost-PFCA ([4]; host vs host + PFHxA): 44.4 | ΔEHost-PFCA ([4]; host vs host + PFNA): 26.8 | ΔEHost-PFCA ([4]; host vs host + PFOA): 40.6 | ΔEHost-PFCA ([4]; host vs host + PFPeA): 45.8 | ΔEHost-PFCA ([4]; host vs host + PFUnDA): 30.5 | K [5]: 1.19e+06 M⁻¹ | ΔE between host and lowest PFOA concentration [6]: 4

O=C(O)C(F)(F)C(F)(F)C(F)(F)C(F)(F)C(F)(F)C(F)(F)C(F)(F)F [PFOA, Perfluorooctanoic acid]
logKo/w [7]: ca. 6.44
